{
  "source": "patent US8993559B2",
  "about": "“Use of ibogamine congeners for treating obesity” (Albany Medical College, priority 2008, dated 2015)",
  "key": {"Sprague-Dawley rats": {"test_system": "Sprague-Dawley rats", "assay": "Operant sucrose self-administration procedure", "assay_type": "in vivo, rat", "experimental": "Naïve female Sprague-Dawley rats (230-270 g; Taconic, Germantown, N.Y.) were housed individually and maintained on a normal 12 hr light cycle (light on/off at 7 a.m./7 p.m.) in the colony room. For all experiments, food (normal chow) and water were provided ad libitum. The experiments were conducted in accordance with the “Guide for the Care and Use of Laboratory Animals” (National Academy of Sciences, 1996).\nRats were water deprived for 23 h so that shaping of the bar-press response could initially be accomplished by training rats to bar-press for water. Thereafter, in non-deprived rats, oral sucrose self-administration testing began with a 16-h nocturnal session followed by daily 1-h sessions, 5 days (Monday-Friday) a week. Rats were allowed access to two levers mounted 15 cm apart on the front wall of each operant test chamber (Coulbourn Instruments, Allentown, Pa.). A response on either of the two levers produced a sucrose reward (15% solution; 0.01 ml) on a FR1 TO 20 (fixed ratio 1 with a 20 sec time-out) schedule. After rates of sucrose self-administration stabilized (20% variation from one day to the next across 5 days), usually after 2 weeks of testing, 18-MC (10-40 mg/kg) or vehicle was administered i.p. 15 minutes before a test session. Each rat typically received two or three different treatments (in randomized order) spaced at least one week apart.\nThe operant self-administration data were analyzed by two-way ANOVA with reward (sucrose vs. water) and dose of 18-MC as the main factors. Subsequent post hoc tests (Newman-Keuls) compared the effects of 18-MC to baseline."}, "[1]": {"assay": "Weight gain paradigm: sucrose-drinking animals", "assay_type": "in vivo, rat", "experimental": "FIG. 11 is a graph showing effects of repeated administration of 18-MC (20 mg/kg i.p. for 14 days) on body fat depots (mean±SEM). *=p<0.05. On the seventh day after the last injection of 18-MC, animals were euthanized in CO2 chambers and decapitated. Necropsies were performed to remove periovarian, perirenal and inguinal fat pads.\nAnimals were maintained on a regular chow and water for the duration of experiment (three weeks). On the first day of experiment, animals received additional bottle containing 30% sucrose solution which remained available for the following three weeks; the bottle sides were switched daily. The body weights of rats were recorded daily for the following two weeks immediately prior administration of 18-MC (20 mg/kg, i.p.) or vehicle. After the last 18-MC injection, the weights were monitored for the additional week.\nFor the weight gain experiment, the data for all four treatment groups from days 1-21 were analyzed using two-way ANOVA, with treatment and time as main factors. Furthermore, the data for the first two weeks and the last week for water-vehicle, water-18-MC and sucrose 18-MC were analyzed separately using two-ANOVA, with treatment and time as main factors. Post-hoc comparison tests (Fisher LSD tests) were conducted when appropriate."}, "rats [2]": {"test_system": "rats", "assay": "Local administration of 18-MC into brain sites: drug self-administration and responding for sucrose", "assay_type": "in vivo, rat", "excerpt": "FIG. 8 is a graph showing effects of local infusion of 18-MC into the basolateral amygdala on methamphetamine self-administration and responding for sucrose. Baseline methamphetamine infusions averaged (S.E.M.) 20.2±0.9 while baseline responding for sucrose averaged (S.E.M.) 27.1±2.1. Each data point represents the mean (S.E.M.) percent of baseline of 6-9 rats. (*=p<0.05-0.01).\nAlthough the medial habenula and the interpeduncular nucleus are the brain regions having the highest concentrations of α3β4 nicotinic receptors, moderate densities of these receptors are localized in the ventral tegmental area, in the basolateral amygdala, and in the dorsolateral tegmentum (caudal pedunculopontine and laterodorsal tegmental nuclei). […] The basolateral amygdala has also been very much implicated in reward-related phenomena, and associated with both stimulants and sucrose. Accordingly, to further investigate brain sites mediating 18-MC's effects on drug self-administration, it was determined if local administration of 18-MC into the dorsolateral tegmentum or basolateral amygdala would alter drug self-administration, the other three sites having already been examined. As done previously, sucrose (15%) was used as a control, non-drug reinforcer. Previously, local administration of 18-MC had no effect on responding for sucrose regardless of whether it was infused into the medial habenula, interpeduncular nucleus, or ventral tegmental area. […] The neural substrates for 18-MC's effects on morphine and sucrose self-administration clearly appear to be different, although both may involve α3β4 nicotinic receptors."}, "rats [3]": {"test_system": "rats", "settings": "cited from earlier work"}},
  "note": "“Also recorded” adds a separate entry of the source.",
  "data": [
    {"smiles": "COCC[C@H]1CC2CN3CCc4c([nH]c5ccccc45)[C@](C(=O)OC)(C2)[C@H]13", "note": "[18-MC, 18-methoxycoronaridine]", "values": [
      {"measurement": "effect on sucrose responding", "setting": "Sprague-Dawley rats; 18-MC 20 mg/kg i.p., 10, 15 and 20% sucrose", "result": "no significant effect"},
      {"measurement": "decrease of sucrose responding", "setting": "Sprague-Dawley rats; 18-MC 20 mg/kg i.p., not significant", "result": "10-20%"},
      {"measurement": "operant responding for sucrose", "setting": "Sprague-Dawley rats; 18-MC 40 mg/kg i.p., 15 min before 1-h session, 15% sucrose", "result": "reduced; also recorded: decreased"},
      {"measurement": "operant responding for water", "setting": "Sprague-Dawley rats; 18-MC up to 40 mg/kg i.p., water 0.01 ml/barpress", "result": "no effect"},
      {"measurement": "weights of fat depots", "setting": "[1]; 18-MC 20 mg/kg i.p. for 14 days, periovarian, perirenal and inguinal fat pads", "result": "decreased"},
      {"measurement": "recovery of the weight gain after cessation of treatment", "setting": "[1]; 18-MC-treated sucrose-drinking group", "result": "did not occur for another week"},
      {"measurement": "sucrose-induced (excessive) weight gain", "setting": "[1]; 30% sucrose, 18-MC 20 mg/kg i.p. daily for two weeks", "result": "attenuated; also recorded: totally prevented"},
      {"measurement": "body weights vs vehicle-treated sucrose-drinking animals", "setting": "[1]; 30% sucrose, 18-MC (40 mg/kg i.p.) as printed, all time points except the first", "result": "significantly lower"},
      {"measurement": "responding for sucrose", "setting": "rats [2]; infused into the medial habenula, interpeduncular nucleus, or ventral tegmental area (previous work)", "result": "no effect"},
      {"measurement": "methamphetamine self-administration", "setting": "rats [2]; local administration into the basolateral amygdala", "result": "decreased"},
      {"measurement": "responding for sucrose", "setting": "rats [2]; local administration into the basolateral amygdala, 15% sucrose", "result": "decreased"},
      {"measurement": "morphine or methamphetamine self-administration", "setting": "rats [2]; local administration into the dorsolateral tegmentum", "result": "no effect"},
      {"measurement": "responding for sucrose", "setting": "rats [2]; local administration into the dorsolateral tegmentum, 15% sucrose", "result": "decreased"},
      {"measurement": "signs of acute opioid withdrawal", "setting": "rats [3]", "result": "alleviate"}
    ]}
  ]
}
